# Reference: ChEMBL document CHEMBL2448688, “Selection and optimization of hits from a high-throughput phenotypic screen against Trypanosoma cruzi. Exported from HEOS 25-Oct-2013. See also related datasets CHEMBL3137440 and CHEMBL3137386”
# Several values for one entry are separate records, joined by “and”; a condition that tells them apart may be missing. Equal entries are not always repeated.
# Tests used:
# in vitro [1] = conditions: rat, microsomes
# [2] = DNDI: Lipophilicity (gLogD) at pH 3; conditions: buffer, pH 3, logD
# in vitro [3] = conditions: human, microsomes, t (1 / 2)
# in vitro [4] = conditions: human, microsomes
# Cytochrome P450 3A4 [5] = molecular target: T1, Cytochrome P450 3A4 (Homo sapiens, UniProt P08684); experiment: DNDI: Human CYP3A4 inhibition determined using 6b-hydroxylation of testosterone
# T1 sequence (P08684 whole entry): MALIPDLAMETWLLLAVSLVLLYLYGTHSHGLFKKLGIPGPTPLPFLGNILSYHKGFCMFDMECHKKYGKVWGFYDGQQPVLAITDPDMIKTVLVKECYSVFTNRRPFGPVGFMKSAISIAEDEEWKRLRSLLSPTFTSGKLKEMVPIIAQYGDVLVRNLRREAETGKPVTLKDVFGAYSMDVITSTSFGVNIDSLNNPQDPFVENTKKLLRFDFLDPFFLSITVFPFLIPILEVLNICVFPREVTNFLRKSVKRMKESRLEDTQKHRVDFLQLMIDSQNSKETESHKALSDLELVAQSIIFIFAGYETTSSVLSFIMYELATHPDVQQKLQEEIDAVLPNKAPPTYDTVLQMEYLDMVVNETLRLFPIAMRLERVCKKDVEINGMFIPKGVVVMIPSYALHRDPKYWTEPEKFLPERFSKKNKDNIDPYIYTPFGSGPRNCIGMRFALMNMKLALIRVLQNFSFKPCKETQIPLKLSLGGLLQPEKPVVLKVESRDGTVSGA
# [6] = DNDI: Solubility in 0.01M HCl at pH 2 determined by nephelometry; conditions: for solubility kinetic: 0.01M HCl, pH 2, Kinetic
# in vitro [7] = conditions: human, microsomes, EH
# [8] = DNDI: Lipophilicity (gLogD) at pH 7.4; conditions: buffer, pH 7.4, logD
# Trypanosoma cruzi [9] = experiment: (§1) DNDI: Chagas in Vitro; type: functional, Tulahuen C4 (LacZ)
# in vitro [10] = conditions: rat, microsomes; remark: listed apart in the source
# L6 = experiment: (§2) DNDI: Cytotoxicity in vitro, against rat skeletal myoblast (L-6) cells; conditions: L-6 cells (skeletal myoblasts)
# [11] = as §2; conditions: L-6 cells (skeletal myoblasts), IC50
# in vitro [12] = conditions: rat, microsomes; remark: listed apart in the source
# [13] = DNDI: Metabolism; type: ADME, Microsome; conditions: rat, microsomes
# Trypanosoma cruzi [14] = experiment: as §1; type: functional, organism-based, Tulahuen C4 (LacZ)
# [15] = human, microsomes
# [16] = human, microsomes; remark: listed apart in the source
# [17] = DNDI: Solubility in phosphate buffer at pH 6.5 determined by nephelometry; conditions: for solubility kinetic: phosphate buffer, pH 6.5, Kinetic
# [18] = human, microsomes; remark: listed apart in the source
# CYP3A4 [19] = molecular target: T2, CYP3A4 (Homo sapiens, UniProt P08684); experiment: DNDI: Human CYP3A4 inhibition at 10 uM determined using 6b-hydroxylation of testosterone; conditions: probe testosterone (6b-hydroxylation)
# T2 sequence (P08684 whole entry): as above
# CYP3A4 [20] = molecular target: T2, CYP3A4; experiment: DNDI: Human CYP3A4 inhibition at 1 uM determined using 6b-hydroxylation of testosterone; conditions: probe testosterone (6b-hydroxylation)
# in vitro [21] = conditions: mouse, microsomes
# in vitro [22] = conditions: mouse, microsomes; remark: listed apart in the source
# in vitro [23] = conditions: mouse, microsomes; remark: listed apart in the source
# [24] = system: Trypanosoma brucei rhodesiense; experiment: DNDI: HAT in Vitro; type: functional, organism-based, ATCC 30027
# Cytochrome P450 3A4 [25] = molecular target: T1, Cytochrome P450 3A4; experiment: DNDI: CYP Inhibition; type: ADME
# Leishmania donovani = experiment: DNDI: Leish macro in vitro at 10 uM; type: functional; conditions: MHOM/ET/67/L82
# Trypanosoma cruzi [26] = experiment: DNDI: Chagas in vivo at 50 mg/kg, 20 days 1x; type: functional, Tulahuen Swiss po
# Trypanosoma cruzi [27] = experiment: DNDI: Chagas in vivo at 20 mg/kg, 20 days 2x; type: functional, Tulahuen Swiss po
# [28] = DNDI: Protein binding in mouse plasma
# [29] = DNDI: Protein binding in rat plasma; type: ADME, cell-free; conditions: read-out: % bound (converted)
# in vitro [30] = conditions: rat, hepatocytes
# [31] = Trypanosoma cruzi, Tulahuen C4 (LacZ)
chromatographic logD [2],half-life (in vitro [3]) [min],microsomal CLint (in vitro [4]) [µL/min/mg],IC50 (Cytochrome P450 3A4 [5]) [nM],solubility kinetic [6] [µg/mL],hepatic extraction ratio (in vitro [7]),chromatographic logD [8],IC90 (Trypanosoma cruzi [9]),IC50 (Trypanosoma cruzi [14]; [31]) [nM],IC90 (Trypanosoma cruzi [9]; [31]) [nM],solubility kinetic [17] [µg/mL],IC50 (Trypanosoma cruzi [14]),"IC50 ([24]; Trypanosoma brucei, ATCC 30027) [nM]",SMILES,IC50 [11] [nM],inhibition at 10 µM (Leishmania donovani) [%],further results
2.3,57,30,2000,> 100,0.54,3.1,> 100 nM and 12.8 nM,,,,,,CO/N=C(\C)c1ccc(-n2ccnc2)c(NC(=O)c2ccc(-c3ccccn3)s2)c1,65600,,half-life (in vitro [1]): 27 min; hepatic extraction ratio (in vitro [10]): 0.62; IC50 (L6): 72500 nM; microsomal CLint (in vitro [12]): 64 µL/min/mg; CLblood [13]: 42 mL/min/kg
,,,,57.5,,2.29,,49,125,53,,,Cl.NCC(=O)N(Cc1cccnc1)c1cc(F)cc(-c2nc3ccccc3s2)c1,> 100000,,"CLint in vitro [15]: 66 µL/min/mg and 30 µL/min/mg; EH [16]: 0.54 none; Kinetic ([6]; buffer, pH 2): > 100 µg/mL; Kinetic ([17]; buffer, pH 6.5): > 100 µg/mL; t (1 / 2) [18]: 58 min and 26.3 min"
1.6,123,14,> 10000,> 100,0.35,2.1,,13.5,27,,,,CC(=O)N(Cc1c[nH]cn1)c1ccc(-c2nc3ccccc3s2)cc1,63400,,inhibition at 10 µM (CYP3A4 [19]): 28.1%; inhibition at 1 µM (CYP3A4 [20]): 0.3%; microsomal CLint (in vitro [21]): 21 µL/min/mg; half-life (in vitro [22]): 81 min; hepatic extraction ratio (in vitro [23]): 0.32
3.4,36,48,,> 100,0.73,3.8,257 nM and > 100 nM,25.5,,1.6,26 nM,,O=c1c2ccccc2nc(-c2ccc(-c3ccccc3)cc2)n1Cc1cccnc1,16100,,IC50 [24]: 23300 nM and > 10000 nM; IC50 (L6): 19400 nM; IC50 (Cytochrome P450 3A4 [25]): > 20000 nM
1.7,> 250,< 7,> 20000,50,< 0.28,2.3,,90,> 100,12.5,,> 10000,CS(=O)(=O)c1ccc(-n2ccnc2)c(NC(=O)c2cnc(-c3ccccc3)nc2)c1,> 100000,48.2,
,,,,,,,,30,193,,,> 10000,OC(COc1ccc2cc(Br)ccc2c1)Cn1ccnc1 (stereo not given),65900,,IC50 (Cytochrome P450 3A4 [25]): 700 nM
2.6,73,24,,> 100,,3.4,10.5 nM and 25.9 nM,,,< 1.6,3 nM and 8 nM,> 10000,CO/N=C(\C)c1ccc(-n2ccnc2)c(NC(=O)c2cnc(-c3ccccc3)nc2)c1,> 100000,47.3,half-life (in vitro [1]): 38 min; PCR cure rate (Trypanosoma cruzi [26]): 0%; Parasitemia clearance after immunosuppression (Trypanosoma cruzi [26]): 0%; Parasitemia clearance after treatment (Trypanosoma cruzi [26]): 60%; PCR cure rate (Trypanosoma cruzi [27]): 0%; Parasitemia clearance after immunosuppression (Trypanosoma cruzi [27]): 60%; Parasitemia clearance after treatment (Trypanosoma cruzi [27]): 80%; fraction unbound [28]: 0.028; fraction unbound [29]: 0.014; microsomal CLint (in vitro [21]): 34 µL/min/mg; half-life (in vitro [22]): 52 min; CLhep predicted (in vitro [30]): 26.7 mL/min/kg; microsomal CLint (in vitro [12]): 46 µL/min/mg
1.9,113,15,> 20000,50,0.46,2.7,,> 100,> 100,3.1,84 nM,> 10000,N#Cc1ccc(-n2ccnc2)c(NC(=O)c2cnc(-c3ccccc3)nc2)c1,> 100000,53.5,
